Assay: Safety and tolerability (adverse events), Study 1 MAD in healthy participants
Assay type: in vivo, human
[1] = Study 1 MAD group, BMS-986142-treated
[2] = Study 1 MAD, all BMS-986142 doses, n = 24

Cc1c(-c2c(F)cc(C(N)=O)c3[nH]c4c(c23)CC[C@H](C(C)(C)O)C4)cccc1-n1c(=O)c2cccc(F)c2n(C)c1=O [BMS-986142, 6-fluoro-5-(R)-(3-(S)-(8-fluoro-1-methyl-2,4-dioxo-1,2-dihydroquinazolin-3(4H)-yl)-2-methylphenyl)-2-(S)-(2-hydroxypropan-2-yl)-2,3,4,9-tetrahydro-1H-carbazole-8-carboxamide]
1 (4.2) n (%): AE SOC: Ear and labyrinth disorders (MAD any dose, n = 24) | AE SOC: Eye disorders (MAD any dose, n = 24) | AE SOC: Infections and infestations (MAD any dose, n = 24) | AE SOC: Injury, poisoning and procedural complications (MAD any dose, n = 24) | AE SOC: Musculoskeletal and connective tissue disorders (MAD any dose, n = 24) | AE SOC: Nervous system disorders (MAD any dose, n = 24) | AE SOC: Psychiatric disorders (MAD any dose, n = 24) | AE SOC: Skin and subcutaneous tissue disorders (MAD any dose, n = 24) | AE: Abdominal pain (MAD any dose, n = 24) | AE: Back pain (MAD any dose, n = 24) | AE: Cerumen impaction (MAD any dose, n = 24) | AE: Cough (MAD any dose, n = 24) | AE: Diarrhoea (MAD any dose, n = 24) | AE: Eye pain (MAD any dose, n = 24) | AE: Haemoptysis (MAD any dose, n = 24) | AE: Headache (MAD any dose, n = 24) | AE: Psychotic disorder (MAD any dose, n = 24) | AE: Rash (MAD any dose, n = 24) | AE: Thermal burn (MAD any dose, n = 24) | AE: Throat irritation (MAD any dose, n = 24) | AE: Upper respiratory tract infection (MAD any dose, n = 24) | AE: Cough [2] | AE: Diarrhea [2] | AE: Headache/tension headache [2] | AE: Thermal burns [2] | AE: Upper respiratory tract infection [2]
8 (33.3) n (%): Total subjects with an event (MAD any dose, n = 24) | Subjects with AEs [2]
4 (66.7) n (%): Total subjects with an event (MAD 75 mg QD, n = 6)
1 (16.7) n (%): AE SOC: Eye disorders (MAD 25 mg QD, n = 6) | AE SOC: Injury, poisoning and procedural complications (MAD 25 mg QD, n = 6) | AE SOC: Respiratory, thoracic and mediastinal disorders (MAD 25 mg QD, n = 6) | AE: Cough (MAD 25 mg QD, n = 6) | AE: Eye pain (MAD 25 mg QD, n = 6) | AE: Thermal burn (MAD 25 mg QD, n = 6) | AE SOC: Ear and labyrinth disorders (MAD 75 mg QD, n = 6) | AE SOC: Nervous system disorders (MAD 75 mg QD, n = 6) | AE SOC: Psychiatric disorders (MAD 75 mg QD, n = 6) | AE SOC: Respiratory, thoracic and mediastinal disorders (MAD 75 mg QD, n = 6) | AE: Abdominal pain (MAD 75 mg QD, n = 6) | AE: Cerumen impaction (MAD 75 mg QD, n = 6) | AE: Diarrhoea (MAD 75 mg QD, n = 6) | AE: Haemoptysis (MAD 75 mg QD, n = 6) | AE: Headache (MAD 75 mg QD, n = 6) | AE: Psychotic disorder (MAD 75 mg QD, n = 6) | AE: Throat irritation (MAD 75 mg QD, n = 6) | AE SOC: Infections and infestations (MAD 200 mg QD, n = 6) | AE SOC: Musculoskeletal and connective tissue disorders (MAD 200 mg QD, n = 6) | AE: Back pain (MAD 200 mg QD, n = 6) | AE: Upper respiratory tract infection (MAD 200 mg QD, n = 6) | Total subjects with an event (MAD 200 mg QD, n = 6) | AE SOC: Skin and subcutaneous tissue disorders (MAD 350 mg QD, n = 6) | AE: Rash (MAD 350 mg QD, n = 6) | Total subjects with an event (MAD 350 mg QD, n = 6)
8 participants: Participants with AEs [1]
2 (8.3) n (%): AE SOC: Gastrointestinal Disorders (MAD any dose, n = 24) | AE SOC: Respiratory, thoracic and mediastinal disorders (MAD any dose, n = 24)
13 AEs: Number of AEs reported [1]
0 n (%): AE SOC: Ear and labyrinth disorders (MAD 25 mg QD, n = 6) | AE SOC: Gastrointestinal Disorders (MAD 25 mg QD, n = 6) | AE SOC: Infections and infestations (MAD 25 mg QD, n = 6) | AE SOC: Investigations (MAD 25 mg QD, n = 6) | AE SOC: Musculoskeletal and connective tissue disorders (MAD 25 mg QD, n = 6) | AE SOC: Nervous system disorders (MAD 25 mg QD, n = 6) | AE SOC: Psychiatric disorders (MAD 25 mg QD, n = 6) | AE SOC: Skin and subcutaneous tissue disorders (MAD 25 mg QD, n = 6) | AE: Abdominal pain (MAD 25 mg QD, n = 6) | AE: Back pain (MAD 25 mg QD, n = 6) | AE: Blood creatinine phosphokinase increased (MAD 25 mg QD, n = 6) | AE: Cerumen impaction (MAD 25 mg QD, n = 6) | AE: Diarrhoea (MAD 25 mg QD, n = 6) | AE: Haemoptysis (MAD 25 mg QD, n = 6) | AE: Headache (MAD 25 mg QD, n = 6) | AE: Psychotic disorder (MAD 25 mg QD, n = 6) | AE: Rash (MAD 25 mg QD, n = 6) | AE: Somnolence (MAD 25 mg QD, n = 6) | AE: Syncope (MAD 25 mg QD, n = 6) | AE: Throat irritation (MAD 25 mg QD, n = 6) | AE: Upper respiratory tract infection (MAD 25 mg QD, n = 6) | AE SOC: Eye disorders (MAD 75 mg QD, n = 6) | AE SOC: Infections and infestations (MAD 75 mg QD, n = 6) | AE SOC: Injury, poisoning and procedural complications (MAD 75 mg QD, n = 6) | AE SOC: Investigations (MAD 75 mg QD, n = 6) | AE SOC: Musculoskeletal and connective tissue disorders (MAD 75 mg QD, n = 6) | AE SOC: Skin and subcutaneous tissue disorders (MAD 75 mg QD, n = 6) | AE: Back pain (MAD 75 mg QD, n = 6) | AE: Blood creatinine phosphokinase increased (MAD 75 mg QD, n = 6) | AE: Cough (MAD 75 mg QD, n = 6) | AE: Eye pain (MAD 75 mg QD, n = 6) | AE: Rash (MAD 75 mg QD, n = 6) | AE: Somnolence (MAD 75 mg QD, n = 6) | AE: Syncope (MAD 75 mg QD, n = 6) | AE: Thermal burn (MAD 75 mg QD, n = 6) | AE: Upper respiratory tract infection (MAD 75 mg QD, n = 6) | AE SOC: Ear and labyrinth disorders (MAD 200 mg QD, n = 6) | AE SOC: Eye disorders (MAD 200 mg QD, n = 6) | AE SOC: Gastrointestinal Disorders (MAD 200 mg QD, n = 6) | AE SOC: Injury, poisoning and procedural complications (MAD 200 mg QD, n = 6) | AE SOC: Investigations (MAD 200 mg QD, n = 6) | AE SOC: Nervous system disorders (MAD 200 mg QD, n = 6) | AE SOC: Psychiatric disorders (MAD 200 mg QD, n = 6) | AE SOC: Respiratory, thoracic and mediastinal disorders (MAD 200 mg QD, n = 6) | AE SOC: Skin and subcutaneous tissue disorders (MAD 200 mg QD, n = 6) | AE: Abdominal pain (MAD 200 mg QD, n = 6) | AE: Blood creatinine phosphokinase increased (MAD 200 mg QD, n = 6) | AE: Cerumen impaction (MAD 200 mg QD, n = 6) | AE: Cough (MAD 200 mg QD, n = 6) | AE: Diarrhoea (MAD 200 mg QD, n = 6) | AE: Eye pain (MAD 200 mg QD, n = 6) | AE: Haemoptysis (MAD 200 mg QD, n = 6) | AE: Headache (MAD 200 mg QD, n = 6) | AE: Psychotic disorder (MAD 200 mg QD, n = 6) | AE: Rash (MAD 200 mg QD, n = 6) | AE: Somnolence (MAD 200 mg QD, n = 6) | AE: Syncope (MAD 200 mg QD, n = 6) | AE: Thermal burn (MAD 200 mg QD, n = 6) | AE: Throat irritation (MAD 200 mg QD, n = 6) | AE SOC: Ear and labyrinth disorders (MAD 350 mg QD, n = 6) | AE SOC: Eye disorders (MAD 350 mg QD, n = 6) | AE SOC: Gastrointestinal Disorders (MAD 350 mg QD, n = 6) | AE SOC: Infections and infestations (MAD 350 mg QD, n = 6) | AE SOC: Injury, poisoning and procedural complications (MAD 350 mg QD, n = 6) | AE SOC: Investigations (MAD 350 mg QD, n = 6) | AE SOC: Musculoskeletal and connective tissue disorders (MAD 350 mg QD, n = 6) | AE SOC: Nervous system disorders (MAD 350 mg QD, n = 6) | AE SOC: Psychiatric disorders (MAD 350 mg QD, n = 6) | AE SOC: Respiratory, thoracic and mediastinal disorders (MAD 350 mg QD, n = 6) | AE: Abdominal pain (MAD 350 mg QD, n = 6) | AE: Back pain (MAD 350 mg QD, n = 6) | AE: Blood creatinine phosphokinase increased (MAD 350 mg QD, n = 6) | AE: Cerumen impaction (MAD 350 mg QD, n = 6) | AE: Cough (MAD 350 mg QD, n = 6) | AE: Diarrhoea (MAD 350 mg QD, n = 6) | AE: Eye pain (MAD 350 mg QD, n = 6) | AE: Haemoptysis (MAD 350 mg QD, n = 6) | AE: Headache (MAD 350 mg QD, n = 6) | AE: Psychotic disorder (MAD 350 mg QD, n = 6) | AE: Somnolence (MAD 350 mg QD, n = 6) | AE: Syncope (MAD 350 mg QD, n = 6) | AE: Thermal burn (MAD 350 mg QD, n = 6) | AE: Throat irritation (MAD 350 mg QD, n = 6) | AE: Upper respiratory tract infection (MAD 350 mg QD, n = 6) | AE SOC: Investigations (MAD any dose, n = 24) | AE: Blood creatinine phosphokinase increased (MAD any dose, n = 24) | AE: Somnolence (MAD any dose, n = 24) | AE: Syncope (MAD any dose, n = 24) | AE: Dizziness [2] | AE: Nausea [2]
2 (33.3) n (%): Total subjects with an event (MAD 25 mg QD, n = 6) | AE SOC: Gastrointestinal Disorders (MAD 75 mg QD, n = 6)
